Experiments:
LN229 and GBM39 cells = experiment: Boyden chamber migration towards vitronectin or fibronectin; assay type: cell-based, human; settings: vitronectin or fibronectin versus BSA-coated chambers
Excerpt: Cells were layered in soft agar to evaluate anchorage-independent growth in the presence of the indicated concentrations of inhibitor and colonies counted following 14 days of growth. Representative crystal violet stained images are shown below. Data represent mean+S.D. of three independent experiments. […] Cells were placed in Boyden chambers and allowed to migrate towards BSA (white bars), vitronectin (light yellow bars), or fibronectin (dark yellow bars) (*, P<0.05; n=3). […] Representative crystal violet stained images are shown (200×). Data represent mean+S.D. of three independent experiments. […] Graphical data shown below represent mean+S.D. (late apoptosis; annexin V-positive, PI-positive) of three independent experiments.
(§1) Cell proliferation, clonogenic, migration, invasion and apoptosis assays. Cell proliferation was determined via Cell Titer-Glo® luminescent cell assays (Promega). Clonogenic assays were done by plating a total of 1,000 cells per well in 24-well plates in a total volume of 400 μL using a two-layered soft agar system as previously described (Masri J, et al. (2007) Cancer Res 67: 11712-11720). Cell migration assays were conducted using precoated modified Boyden chambers as previously described (Benavides-Serrato A, et al. (2017) PLoS One 12: e0176599). […]

T98G cells = experiment: Cell Titer-Glo sensitivity of T98G cells with YAP1 knockdown or overexpression; assay type: cell-based, human; settings: 72 h
Excerpt: Nuclear and cytoplasmic fractions were immunoblotted for YAP, HSP90 and lamin B2. FIG. 4B show quantification of nuclear YAP expression levels from a as determined by densitometric analyses. Relative nuclear YAP1 expression in U87 cells was arbitrarily assigned a value of 1. Nuclear YAP expression in the cell lines is shown as mean+S.D., n=3. […] Relative nuclear YAP expression was obtained from FIG. 4B above. […] Data represent mean±S.D. of three independent experiments (*, P<0.05).
as §1, with “11712-11720).” for “11712-11720). Cell migration assays were conducted using precoated modified Boyden chambers as previously described (Benavides-Serrato A, et al. (2017) PLoS One 12: e0176599).”
Increased YAP expression directly correlates with NSC682769 sensitivity in GBM cells. […] To examine whether differences in YAP expression may alter sensitivity to NSC682769, the relative expression of nuclear versus cytoplasmic YAP was determined in a panel of GBM lines (FIG. 4A). […] Cell viability was then determined using ATP-release assays on these lines over a wide range of NSC682769 concentrations and IC50s calculated (FIG. 4C). […]

## COc1ccc(-c2cc(-c3ccccc3)nc3c2CC(=O)Nc2ccccc2-3)cc1OC [NSC682769]
LN229 and GBM39 cells
  Cell migration: inhibited the number of cells capable of migrating
T98G cells; T98G with YAP1 knocked down (shRNA)
  Sensitivity versus parental T98G line: relatively resistant
T98G cells; T98G with YAP1 overexpressed
  Sensitivity versus parental T98G line: significantly more sensitive

From patent publication US20240108634A1, “COMPOSITIONS AND METHODS FOR INHIBITING YAP” (The United States Government as represented by the …, priority 2021, published 2024)
